Laboratory results taken from patent US20200390774A1, “TRPA1 ANTAGONISTS FOR USE IN THE TREATMENT OF ATOPIC DERMATITIS” (GALDERMA RESEARCH & DEVELOPMENT, priority 2016, published 2020).
pIC50: −log10 of the molar value.

Columns and labels:
[1] = biological target: T1, hTRPV3 (Homo sapiens, UniProt Q8NET8); details: unit inferred; cited from earlier work
T1 sequence (Q8NET8 1-790): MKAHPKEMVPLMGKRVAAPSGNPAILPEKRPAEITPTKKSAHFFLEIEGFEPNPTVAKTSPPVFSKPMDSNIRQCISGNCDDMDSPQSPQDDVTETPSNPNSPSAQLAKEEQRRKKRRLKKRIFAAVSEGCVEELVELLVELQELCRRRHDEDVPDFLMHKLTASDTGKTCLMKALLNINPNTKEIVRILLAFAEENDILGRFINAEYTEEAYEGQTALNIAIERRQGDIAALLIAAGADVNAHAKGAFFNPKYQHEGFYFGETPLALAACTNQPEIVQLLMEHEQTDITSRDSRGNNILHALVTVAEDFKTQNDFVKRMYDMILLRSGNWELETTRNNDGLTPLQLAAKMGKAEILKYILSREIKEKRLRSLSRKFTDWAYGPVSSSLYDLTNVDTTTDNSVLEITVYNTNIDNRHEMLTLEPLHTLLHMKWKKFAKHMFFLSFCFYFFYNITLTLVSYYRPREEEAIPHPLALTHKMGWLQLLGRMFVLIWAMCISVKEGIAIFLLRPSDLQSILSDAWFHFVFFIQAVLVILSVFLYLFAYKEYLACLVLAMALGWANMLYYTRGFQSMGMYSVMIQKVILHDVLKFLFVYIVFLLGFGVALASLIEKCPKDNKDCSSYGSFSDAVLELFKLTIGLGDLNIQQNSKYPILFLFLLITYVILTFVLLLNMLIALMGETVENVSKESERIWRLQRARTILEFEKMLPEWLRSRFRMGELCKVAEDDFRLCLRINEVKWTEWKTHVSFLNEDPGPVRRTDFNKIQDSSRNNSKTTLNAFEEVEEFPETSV

[2] = test system: mouse AD-patch model; experiment: AD-patch model (DERP epicutaneous sensitization); type: in vivo; details: topical 1% in acetone, days 44, 47 and 50; for epidermis thickness, change / inflammatory scores, change: day 51 histology; for TEWL-increase, change: measured day 51
Experimental: Female Balb/c mice were treated with Dermatophagoïdes pteronyssinus (DERP) allergen in 3 cycles of epicutaneous sensitization (patch) on abdominal skin with 2 patches applied twice weekly followed by 2 weeks of rest, during 7 weeks. Antagonists B or D were formulated at 1% in an acetone vehicle, applied to the sensitized-skin 2 hours before DERP-patches installation. Topical treatments with antagonists or a corticosteroid (used as a control) were only performed 3 times in the 3rd and last week of sensitization (at days 44, 47 and 50).
TEWL is measured the last day (Day 51) according to the protocol of FIG. 2.
On day 51, animals are sacrificed and skin is removed and fixed in formalin followed by embedment in paraffin, sectioning and staining with hematoxylin and eosin. Epidermis thickness is measured by averaging the values of measurements of five independent fields of view.
On day 51, animals are sacrificed and skin is removed and fixed in formalin followed by embedment in paraffin, sectioning and staining with hematoxylin and eosin. Inflammation score is quantified by averaging the values of 10 random fields of view per sample, scored for inflammation with a gradient (semi-quantitative scoring from 0 to 5).
At day 51, gene expression of IL4 cytokine is quantified after RNA extraction from skin, RNA retro transcription and PCR using the TaqMan® Universal MasterMix of Applied Biosystem. cDNA of mice of group Vehicle 001 are used as comparator.
At day 51, gene expression of TSLP cytokine is quantified after RNA extraction from skin, RNA retro transcription and PCR using the TaqMan® Universal MasterMix of Applied Biosystem. cDNA of mice of group Vehicle 001 are used as comparator.
AD inflammatory response was induced by epicutaneous sensitization with patches soaked with 100 μg of allergen in sterile saline (Dermatophagoïdes pteronyssinus or DERP) or with vehicle applied on abdominal skin 24 h after shaving and left on for three 1-wk periods (with patch renewal at midweek), with a 2-wk interval between applications. The presence of the patches and of a transparent occlusive dressing above, prevented licking, biting and scratching from mouse, therefore the inflammatory response in this model is not due to the scratch-itch cycle.
Antagonists B or D were formulated at 1% in an acetone vehicle, applied to the sensitized-skin 2 hours before DERP-patches installation. Topical treatments with antagonists or a corticosteroid (used as a control) were only performed 3 times in the 3rd and last week of sensitization (at days 44, 47 and 50).
At the time of the last patch removal (day 51), skin samples and blood were collected.
Skin was collected for histological, immunohistological analyses and real-time PCR after RNA extraction. Ig (IgE, and specific IgG) concentrations in serum were measured by ELISA

[3] = test system: TRPA1 agonist-induced ear edema; experiment: Topical PD model: AITC (TRPA1 agonist)-induced ear edema; type: in vivo, mouse; details: topical 1% or 3% in acetone, 1 h before 6% AITC, measured during 6 hours
Experimental: Test antagonists B to D were formulated at 1% or 3% in an acetone vehicle, applied to the mouse ear skin (10 μl/ear both faces) and left for 1 hour. Then, 10 μl of a 6% solution of allyl isothiocyanate (AITC) in acetone (vehicle 001) was applied to the same location, and ear thickness was measured at TO, 30 min, 1 h, 2 h, 4 h and 6 h. A topical pharmacodynamics (PD) model was designed in mouse, in which test antagonists B to D were formulated at 1% or 3% in an acetone vehicle, applied to the ear skin and left for 1 hour. After this time, a 6% solution of allyl isothiocyanate (AITC), a TRPA1 agonist, in acetone (vehicle 001) was then applied to the same location and ear edema (via the ear thickness) was measured during 6 hours.

[4] = cited from earlier work
[5] = test system: pain models; details: cited from earlier work
[6] = test system: imiquimod-induced psoriasiform skin inflammation; experiment: Imiquimod (Aldara) psoriasiform model; type: in vivo, mouse; details: topical 1% in PG/EtOH twice daily, day 8
Experimental: The treatment protocol consists of a daily topical application of Aldara (3.18 mg of imiquimod) for 7 days on the shaved back skin of Balb/c mice. Compound C was dissolved in PG/EtOH at 1% and was applied twice daily 2 h before and 6 h after Aldara treatment. Corticosteroid was dissolved in acetone (Vehicle 001) at 0.01% and applied only 2 h before Aldara treatment. Epidermis thickness is then measured at day 8 according to the protocol of FIG. 3. […] Indeed, it induces inflamed scaly skin lesions resembling psoriasis plaques. […] IMQ induced epidermal expression of IL-23, IL-17A, and IL-17F, as well as an increase in splenic Th17 cells (J Immunol. 2009 May 1; 182(9):5836-45). Mice received a daily topical dose of 63.5 mg (14 μl) of commercially available IMQ cream (5%) (Aldara; 3M Pharmaceuticals) on the shaved back skin for 7 consecutive days.

[7] = biological target: hTRPA1 (Homo sapiens, UniProt O75762); details: value in μM; cited from earlier work
[8] = biological target: rTRPA1 (Rattus norvegicus, UniProt Q6RI86); details: cited from earlier work
Chain of rTRPA1 (Q6RI86 whole entry): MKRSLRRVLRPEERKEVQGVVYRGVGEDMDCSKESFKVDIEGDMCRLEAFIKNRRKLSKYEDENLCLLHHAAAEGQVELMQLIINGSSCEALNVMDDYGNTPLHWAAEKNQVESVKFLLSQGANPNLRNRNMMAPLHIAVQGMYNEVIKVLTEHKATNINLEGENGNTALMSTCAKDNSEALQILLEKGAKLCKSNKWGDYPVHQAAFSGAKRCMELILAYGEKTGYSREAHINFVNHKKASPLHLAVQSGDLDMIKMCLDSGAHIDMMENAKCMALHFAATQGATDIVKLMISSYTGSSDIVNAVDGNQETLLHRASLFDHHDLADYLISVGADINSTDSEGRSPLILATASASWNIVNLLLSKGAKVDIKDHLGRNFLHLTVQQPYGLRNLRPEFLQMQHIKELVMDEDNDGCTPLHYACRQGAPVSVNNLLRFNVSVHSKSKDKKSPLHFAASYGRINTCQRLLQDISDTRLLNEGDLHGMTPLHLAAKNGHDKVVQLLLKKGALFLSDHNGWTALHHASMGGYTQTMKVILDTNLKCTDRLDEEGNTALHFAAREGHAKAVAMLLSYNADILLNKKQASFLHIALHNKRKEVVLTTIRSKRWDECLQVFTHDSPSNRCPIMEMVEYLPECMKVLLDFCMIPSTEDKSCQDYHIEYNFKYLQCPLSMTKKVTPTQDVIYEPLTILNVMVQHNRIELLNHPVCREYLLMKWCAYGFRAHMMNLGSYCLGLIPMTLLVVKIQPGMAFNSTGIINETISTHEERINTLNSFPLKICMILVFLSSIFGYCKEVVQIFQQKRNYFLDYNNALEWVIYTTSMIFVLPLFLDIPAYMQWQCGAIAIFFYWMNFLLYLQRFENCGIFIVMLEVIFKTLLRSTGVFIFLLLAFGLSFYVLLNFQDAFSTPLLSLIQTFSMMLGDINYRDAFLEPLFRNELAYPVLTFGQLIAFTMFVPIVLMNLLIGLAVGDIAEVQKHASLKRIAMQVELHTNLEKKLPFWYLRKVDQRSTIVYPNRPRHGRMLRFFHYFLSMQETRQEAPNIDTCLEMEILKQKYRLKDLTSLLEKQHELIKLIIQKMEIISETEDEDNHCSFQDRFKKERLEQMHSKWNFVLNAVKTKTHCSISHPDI

Chain of hTRPA1 (O75762 whole entry): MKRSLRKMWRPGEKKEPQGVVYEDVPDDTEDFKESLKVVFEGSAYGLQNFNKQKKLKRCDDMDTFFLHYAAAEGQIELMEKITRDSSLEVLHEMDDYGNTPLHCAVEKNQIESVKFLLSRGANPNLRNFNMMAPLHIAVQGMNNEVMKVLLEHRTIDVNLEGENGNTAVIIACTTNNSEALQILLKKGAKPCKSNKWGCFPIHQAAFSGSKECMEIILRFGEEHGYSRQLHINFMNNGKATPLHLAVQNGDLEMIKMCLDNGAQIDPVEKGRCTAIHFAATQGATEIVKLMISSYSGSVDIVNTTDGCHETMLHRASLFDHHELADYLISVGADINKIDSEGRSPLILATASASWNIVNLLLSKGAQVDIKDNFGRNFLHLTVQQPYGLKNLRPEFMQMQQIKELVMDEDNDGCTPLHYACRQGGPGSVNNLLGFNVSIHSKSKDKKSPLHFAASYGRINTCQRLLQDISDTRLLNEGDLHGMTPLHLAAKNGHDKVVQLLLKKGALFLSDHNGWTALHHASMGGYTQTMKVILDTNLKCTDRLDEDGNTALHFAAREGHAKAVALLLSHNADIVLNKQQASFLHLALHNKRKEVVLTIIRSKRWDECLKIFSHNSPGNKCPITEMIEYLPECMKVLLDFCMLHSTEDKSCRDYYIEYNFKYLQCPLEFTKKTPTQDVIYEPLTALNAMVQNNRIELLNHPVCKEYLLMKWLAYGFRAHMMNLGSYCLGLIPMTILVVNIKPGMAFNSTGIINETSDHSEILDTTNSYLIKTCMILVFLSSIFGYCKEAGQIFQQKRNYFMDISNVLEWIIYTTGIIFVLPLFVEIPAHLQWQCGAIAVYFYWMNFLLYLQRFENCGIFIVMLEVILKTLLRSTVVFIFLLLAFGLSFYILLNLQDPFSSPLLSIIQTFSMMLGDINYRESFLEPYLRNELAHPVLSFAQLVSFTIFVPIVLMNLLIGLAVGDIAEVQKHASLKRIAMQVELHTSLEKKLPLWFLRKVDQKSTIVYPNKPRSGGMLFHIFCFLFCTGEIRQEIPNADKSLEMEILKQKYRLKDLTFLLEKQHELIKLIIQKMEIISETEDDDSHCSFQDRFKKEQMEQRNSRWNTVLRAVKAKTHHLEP

Compound	pIC50 [1]	epidermis thickness, change [2]	inflammatory scores, change [2]	TEWL-increase, change [2]	TRPA1 agonist-induced ear edema (ear thickness) [3]	oral bioavailability described in rat [4]	Efficacy described in pain model (ip) ([5]; ip)	IL-17 production by yO T cells (IL17f mRNA) [6]	imiquimod-induced epidermis thickness increase [6]	Efficacy described in pain models in rat ([5]; rat)	IC50 [7]	pIC50 [8]
Cc1cc2[nH]ncc2cc1-c1ccccc1C(F)(F)F [compound B]	< 4.52	−32%	−27%	−54%	decreased	–	–	–	–	–	–	–
FC(F)(F)c1ccccc1-c1cc2cn[nH]c2cc1OCC1CC1 [compound C]	< 4.52	–	–	–	decreased	Low oral	Efficacy	did not significantly reduce	did not significantly reduce	–	–	–
CCC(C)c1ccc(NC(=O)Cn2cnc3c2c(=O)n(C)c(=O)n3C)cc1 (stereo not drawn) [compound D, reference compound]	–	−26%	−32%	−60%	decreased	–	–	–	–	Efficacy	14 to 18 µM	6.64
